# Reference: ChEMBL document CHEMBL3779795, “Design and synthesis of thiourea derivatives with sulfur-containing heterocyclic scaffolds as potential tyrosinase inhibitors” (Bioorg Med Chem, 2016)
# Target: T1, Tyrosinase (Agaricus bisporus, UniProt O42713)
# T1 sequence (O42713 whole entry): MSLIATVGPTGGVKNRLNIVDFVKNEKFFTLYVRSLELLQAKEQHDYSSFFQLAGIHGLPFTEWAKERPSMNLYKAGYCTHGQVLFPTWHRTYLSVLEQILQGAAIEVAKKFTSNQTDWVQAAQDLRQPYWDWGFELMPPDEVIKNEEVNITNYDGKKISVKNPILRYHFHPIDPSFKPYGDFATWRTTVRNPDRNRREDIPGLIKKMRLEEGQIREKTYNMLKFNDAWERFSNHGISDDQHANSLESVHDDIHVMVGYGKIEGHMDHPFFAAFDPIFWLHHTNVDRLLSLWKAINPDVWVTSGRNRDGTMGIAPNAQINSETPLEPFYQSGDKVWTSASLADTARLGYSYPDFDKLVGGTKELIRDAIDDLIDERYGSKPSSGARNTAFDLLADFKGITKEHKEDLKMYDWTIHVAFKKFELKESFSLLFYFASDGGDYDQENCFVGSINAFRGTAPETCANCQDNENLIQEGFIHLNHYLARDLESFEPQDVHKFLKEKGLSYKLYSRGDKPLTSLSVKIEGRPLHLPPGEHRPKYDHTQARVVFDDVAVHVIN
# Assay: Noncompetitive inhibition of diphenolase activity of mushroom tyrosinase preincubated for 10 mins followed by addition of L-DOPA measured for 5 mins by Lineweaver-Burk plot analysis
row,Ki [µM],Compound
1,8.13,O=C(O)CSc1nnc(NC(=S)Nc2cccc(C(F)(F)F)c2)s1

# Target: T1, Tyrosinase
# Assay: Inhibition of diphenolase activity of mushroom tyrosinase preincubated for 10 mins followed by addition of L-DOPA measured for 5 mins by spectrophotometry
row,IC50 [µM],Compound
1,26.3,O=C(O)CSc1nnc(NC(=S)Nc2ccc(Cl)cc2)s1
2,27.7,O=C(O)CSc1nnc(NC(=S)Nc2ccccc2)s1
3,20.5,O=C(O)CSc1nnc(NC(=S)Nc2ccc(F)c(F)c2)s1
4,20.9,O=C(O)CSc1nnc(NC(=S)Nc2ccc(F)cc2)s1
5,33.9,O=C(O)CSc1nnc(NC(=S)Nc2ccc(F)c(Cl)c2)s1
6,20.1,O=C(O)CSc1nnc(NC(=S)Nc2ccc(F)cc2F)s1
7,27.1,COc1ccccc1NC(=S)Nc1nnc(SCC(=O)O)s1
8,31.3,O=C(O)CSc1nnc(NC(=S)Nc2cccc(F)c2)s1
9,6.13,O=C(O)CSc1nnc(NC(=S)Nc2cccc(C(F)(F)F)c2)s1
10,59.7,O=C(O)CSc1nnc(NC(=S)Nc2cccc(Cl)c2)s1
11,54.4,Cc1ccc(NC(=S)Nc2nnc(SCC(=O)O)s2)cc1
